Test results published in US20040235752A1, “3-fluoro-pyrrolidines as antidiabetic agents” (priority 2001, published 2004).

Target: DP-IV (Homo sapiens, UniProt P27487)
Assay: DP-IV inhibition assay according to WO95/15309
Format: biochemical
Conditions: at concentrations up to 5 μM
Description: Compounds were assayed as inhibitors of DP-IV according to the methods described in WO95/15309.

Chain of DP-IV (P27487 whole entry): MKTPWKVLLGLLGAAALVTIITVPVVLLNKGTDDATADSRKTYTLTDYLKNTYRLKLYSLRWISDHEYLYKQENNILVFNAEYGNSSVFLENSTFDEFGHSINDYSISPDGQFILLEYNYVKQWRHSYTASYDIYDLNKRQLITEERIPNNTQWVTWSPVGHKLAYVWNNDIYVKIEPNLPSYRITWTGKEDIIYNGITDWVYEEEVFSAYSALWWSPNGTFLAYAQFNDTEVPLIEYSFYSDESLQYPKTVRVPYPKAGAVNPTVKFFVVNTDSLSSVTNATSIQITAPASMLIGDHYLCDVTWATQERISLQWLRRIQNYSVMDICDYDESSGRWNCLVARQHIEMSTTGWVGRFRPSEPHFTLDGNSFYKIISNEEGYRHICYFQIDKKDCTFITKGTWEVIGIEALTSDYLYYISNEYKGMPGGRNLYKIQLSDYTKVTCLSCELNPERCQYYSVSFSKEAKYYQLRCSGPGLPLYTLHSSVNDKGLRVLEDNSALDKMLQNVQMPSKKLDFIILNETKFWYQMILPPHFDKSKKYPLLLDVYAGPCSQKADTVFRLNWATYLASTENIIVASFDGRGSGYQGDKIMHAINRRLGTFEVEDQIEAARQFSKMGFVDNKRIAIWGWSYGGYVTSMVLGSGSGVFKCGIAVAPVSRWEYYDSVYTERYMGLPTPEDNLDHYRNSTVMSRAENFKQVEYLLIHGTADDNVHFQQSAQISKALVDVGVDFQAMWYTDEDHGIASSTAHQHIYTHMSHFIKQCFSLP

| Structure (SMILES) | inhibition of DP-IV |
| --- | --- |
| CC(=O)OC(C)OC(=O)N[C@@H](CCCNC(=O)c1cnccn1)C(=O)N1CC(F)(F)C[C@H]1C#N (stereo partly drawn) [Example 7, (2S)-1-[N^α-(1′-Acetoxyethoxycarbonyl)-N^ω-(pyrazinyl-2-carbonyl)-L-ornithinyl]-4,4-difluoropyrrolidine-2-carbonitrile] | do not show significant inhibition |
| CC(=O)OCOC(=O)N[C@@H](CCCNC(=O)c1cnc(Cl)c(Cl)c1)C(=O)N1CCC(F)(F)C1 [Example 8, 1-[N^α-(Acetoxymethoxycarbonyl)-N^ω-(5,6-dichloronicotinoyl)-L-ornithinyl]-3,3-difluoropyrrolidine] | do not show significant inhibition |
